Measured values as given in patent US4705777A, “Cationic oligopeptides having microbicidal activity” (priority 1985, dated 1987).

Assays:
[1] = tested on: Streptococcus pneumoniae Type III; assay: Antibacterial activity of rabbit granulocyte peptides (Table III), S. pneumoniae; assay type: cell-based; details: 50 μg/ml, 20 min, 37° C., 10 mM sodium phosphate buffer pH 7.4
Protocol: (§1) The procedure parallels that reported in Lehrer et al., Infection and Immunity (1983) 42:10-14. […] The subculture was grown at 37° C. for 4 h with shaking to provide mid-logarithmic phase organisms that were washed twice with buffer by centrifugation (2000×g, 10 min), and then quantitated spectrophotometrically at 620 nm, with reference to previously established CFU/Optical Density relationships. Bacteria were suspended and experiments were performed in 10 mM sodium phosphate buffer, pH 7.4. In some experiments, buffers were supplemented with 0.14 M NaCl ("high" ionic strength). […] In some experiments, 10 mM phosphate buffer with a pH of 5.8 and conductivity of 1.36 mMHO was used. Peptide "stock solutions" were prepared at 500 μg/ml (microbiuret assay) in 0.01% acetic acid, and stored at -20° C. Typically, incubation mixtures contained 1×10^5 bacterial CFU and 5 μg of peptide in 100 μl of buffer. After incubation for 20 min at 37° C., 900 μl of the same buffer was added, and two additional serial tenfold dilutions were made with that buffer. Duplicate 100 μl aliquots from the three serial dilutions were spread over appropriate nutrient agar plates and incubated for 24-72 h to insure full colony development. Killing of microorganisms was expressed as the logarithm10 No /N, where No represented the initial colony count and N represented the colony count after incubation with peptide. There was no significant alteration in colony count when any of the test organisms were exposed to peptide-free buffer for 20 min.

H. influenzae = assay: Antibacterial action, % killing (Table II), H. influenzae; assay type: cell-based, Haemophilus influenzae; details: 50 μg/ml peptide, 10^7 bacterial cells/ml, 20 min, 37°
Protocol: (§2) To test antibacterial action of the polypeptides, the following protocol was employed. Various species at 10^7 bacterial cells/ml are incubated for 20 min at 37° with 50 μg/ml of the candidate peptide. Colony counts (viable organisms) are made at the outset of the incubation--beforeaddition of the candidate peptide--and after 20 min of incubation with the candidate peptide.

S. marscescens = assay: Antibacterial action, % killing (Table II), S. marscescens; assay type: cell-based, Serratia marscescens; details: 50 μg/ml peptide, 10^7 bacterial cells/ml, 20 min, 37°
Protocol: as §2

[2] = tested on: Staphylococcus aureus 502A; assay: Antibacterial activity of rabbit granulocyte peptides (Table III), S. aureus 502A; assay type: cell-based; details: 50 μg/ml, 20 min, 37° C., 10 mM sodium phosphate buffer pH 7.4
Protocol: as §1

[3] = tested on: Klebsiella pneumoniae ATCC 13883; assay: Antibacterial activity of rabbit granulocyte peptides (Table III), K. pneumoniae; assay type: cell-based; details: 50 μg/ml, 20 min; for Bactericidal activity log10 No /N, Klebsiella pneumoniae ATCC 13883, pH 5.8: 10 mM phosphate buffer pH 5.8; for Bactericidal activity log10 No /N, Klebsiella pneumoniae ATCC 13883: 37° C., 10 mM sodium phosphate buffer pH 7.4; for Bactericidal activity log10 No /N, Klebsiella pneumoniae ATCC 13883, "High" ionic strength: buffer pH 7.4 supplemented with 0.14 M NaCl
Protocol: as §1

S. albus = assay: Antibacterial action, % killing (Table II), S. albus; assay type: cell-based, Staphylococcus albus; details: 50 μg/ml peptide, 10^7 bacterial cells/ml, 20 min, 37°
Protocol: as §2

L. monocytogenes = assay: Antibacterial action, % killing (Table II), L. monocytogenes; assay type: cell-based, Listeria monocytogenes; details: 50 μg/ml peptide, 10^7 bacterial cells/ml, 20 min, 37°
Protocol: as §2

Serratia marcescens = assay: Antibacterial activity of rabbit granulocyte peptides (Table III), S. marcescens; assay type: cell-based; details: 50 μg/ml, 20 min, 37° C., 10 mM sodium phosphate buffer pH 7.4
Protocol: as §1

[4] = tested on: Streptococcus agalactiae Type IIIU; assay: Antibacterial activity of rabbit granulocyte peptides (Table III), S. agalactiae Type IIIU; assay type: cell-based; details: 50 μg/ml, 20 min, 37° C., 10 mM sodium phosphate buffer pH 7.4
Protocol: as §1

Ps. aeruginosa = assay: Antibacterial action, % killing (Table II), Ps. aeruginosa; assay type: cell-based, Pseudomonas aeruginosa; details: 50 μg/ml peptide, 10^7 bacterial cells/ml, 20 min, 37°
Protocol: as §2

K. pneumoniae = assay: Antibacterial action, % killing (Table II), K. pneumoniae; assay type: cell-based, Klebsiella pneumoniae; details: 50 μg/ml peptide, 10^7 bacterial cells/ml, 20 min, 37°
Protocol: as §2

[5] = tested on: Staphylococcus aureus J.F.; assay: Antibacterial activity of rabbit granulocyte peptides (Table III), S. aureus J.F.; assay type: cell-based; details: 50 μg/ml, 20 min, 37° C., 10 mM sodium phosphate buffer pH 7.4
Protocol: as §1

[6] = tested on: Listeria monocytogenes 450; assay: Antibacterial activity of rabbit granulocyte peptides (Table III), L. monocytogenes; assay type: cell-based; details: 50 μg/ml, 20 min; for Bactericidal activity log10 No /N, Listeria monocytogenes 450, pH 5.8: 10 mM phosphate buffer pH 5.8; for Bactericidal activity log10 No /N, Listeria monocytogenes 450: 37° C., 10 mM sodium phosphate buffer pH 7.4; for Bactericidal activity log10 No /N, Listeria monocytogenes 450, "High" ionic strength: buffer pH 7.4 supplemented with 0.14 M NaCl
Protocol: as §1

[7] = tested on: Pseudomonas aeruginosa PAO 579; assay: Antibacterial activity of rabbit granulocyte peptides (Table III), P. aeruginosa; assay type: cell-based; details: 50 μg/ml, 20 min; for Bactericidal activity log10 No /N, Pseudomonas aeruginosa PAO 579, pH 5.8: 10 mM phosphate buffer pH 5.8; for Bactericidal activity log10 No /N, Pseudomonas aeruginosa PAO 579: 37° C., 10 mM sodium phosphate buffer pH 7.4; for Bactericidal activity log10 No /N, Pseudomonas aeruginosa PAO 579, "High" ionic strength: buffer pH 7.4 supplemented with 0.14 M NaCl
Protocol: as §1

[8] = tested on: Staphylococcus epidermidis UCLA-622; assay: Antibacterial activity of rabbit granulocyte peptides (Table III), S. epidermidis; assay type: cell-based; details: 50 μg/ml, 20 min, 37° C., 10 mM sodium phosphate buffer pH 7.4
Protocol: as §1

E. coli = assay: Antibacterial action, % killing (Table II), E. coli; assay type: cell-based, Escherichia coli; details: 50 μg/ml peptide, 10^7 bacterial cells/ml, 20 min, 37°
Protocol: as §2

S. aureus 502A = assay: Antibacterial action, % killing (Table II), S. aureus 502A; assay type: cell-based, Staphylococcus aureus; details: 50 μg/ml peptide, 10^7 bacterial cells/ml, 20 min, 37°
Protocol: as §2

[9] = tested on: Escherichia coli ATCC 29648; assay: Antibacterial activity of rabbit granulocyte peptides (Table III), E. coli; assay type: cell-based; details: 50 μg/ml, 20 min, 37° C., 10 mM sodium phosphate buffer pH 7.4
Protocol: as §1

[10] = tested on: Hemophilus influenzae Type 3A; assay: Antibacterial activity of rabbit granulocyte peptides (Table III), H. influenzae; assay type: cell-based; details: 50 μg/ml, 20 min, 37° C., 10 mM sodium phosphate buffer pH 7.4
Protocol: as §1

[11] = tested on: Staphylococcus aureus 566; assay: Antibacterial activity of rabbit granulocyte peptides (Table III), S. aureus 566; assay type: cell-based; details: 50 μg/ml, 20 min, 37° C., 10 mM sodium phosphate buffer pH 7.4
Protocol: as §1

[12] = tested on: Bordetella bronchiseptica UCLA-342; assay: Antibacterial activity of rabbit granulocyte peptides (Table III), B. bronchiseptica; assay type: cell-based; details: 50 μg/ml, 20 min, 37° C., 10 mM sodium phosphate buffer pH 7.4
Protocol: as §1

[13] = tested on: Streptococcus agalactiae Type-I-A; assay: Antibacterial activity of rabbit granulocyte peptides (Table III), S. agalactiae Type-I-A; assay type: cell-based; details: 50 μg/ml, 20 min; for Bactericidal activity log10 No /N, Streptococcus agalactiae Type 1A, pH 5.8: 10 mM phosphate buffer pH 5.8; for Bactericidal activity log10 No /N, Streptococcus agalactiae Type-I-A: 37° C., 10 mM sodium phosphate buffer pH 7.4; for Bactericidal activity log10 No /N, Streptococcus agalactiae Type 1A, "High" ionic strength: buffer pH 7.4 supplemented with 0.14 M NaCl
Protocol: as §1

E. coli ML-35 = assay: Bactericidal activity of human neutrophil peptides, E. coli ML-35; assay type: cell-based; details: comparison to Table VI
[14] = tested on: Staphylococcus aureus 502A; assay: Bactericidal activity of human neutrophil peptides, S. aureus; assay type: cell-based; details: comparison to Table VI
[15] = tested on: Cryptococcus neoformans C-384 (Type C); assay: Antifungal assay of human neutrophil peptides; assay type: cell-based; details: comparison to Table VI
Streptococcus Group B = assay: Antibacterial action, % killing (Table II), Streptococcus Group B; assay type: cell-based; details: 50 μg/ml peptide, 10^7 bacterial cells/ml, 20 min, 37°
Protocol: as §2

## gly ile cys ala cys arg arg arg phe cys pro asn ser glu arg phe ser gly tyr cys arg val asn gly ala arg tyr val arg cys cys ser arg arg [NP-3a]
[1]
  Bactericidal activity log10 No /N, Streptococcus pneumoniae Type III: > 3.5 log10
H. influenzae
  % Killing, H. influenzae: B (90-99% killing)
S. marscescens
  % Killing, S. marscescens: C (50-90% killing)
[2]
  Bactericidal activity log10 No /N, Staphylococcus aureus 502A: 0.0 log10
[3]
  Bactericidal activity log10 No /N, Klebsiella pneumoniae ATCC 13883, pH 5.8: 0.4 log10
  Bactericidal activity log10 No /N, Klebsiella pneumoniae ATCC 13883: 2.4 log10
  Bactericidal activity log10 No /N, Klebsiella pneumoniae ATCC 13883, "High" ionic strength: 0.0 log10
S. albus
  % Killing, S. albus: D (<50% killing)
L. monocytogenes
  % Killing, L. monocytogenes: D (<50% killing)
Serratia marcescens
  Bactericidal activity log10 No /N, Serratia marcescens: 0.5 log10
[4]
  Bactericidal activity log10 No /N, Streptococcus agalactiae Type IIIU: 0.3 log10
Ps. aeruginosa
  % Killing, Ps. aeruginosa: A (>99% killing)
K. pneumoniae
  % Killing, K. pneumoniae: A (>99% killing)
[5]
  Bactericidal activity log10 No /N, Staphylococcus aureus J.F.: 0.4 log10
[6]
  Bactericidal activity log10 No /N, Listeria monocytogenes 450, pH 5.8: 0.0 log10
  Bactericidal activity log10 No /N, Listeria monocytogenes 450: 0.2 log10
  Bactericidal activity log10 No /N, Listeria monocytogenes 450, "High" ionic strength: 0.1 log10
[7]
  Bactericidal activity log10 No /N, Pseudomonas aeruginosa PAO 579, pH 5.8: 0.1 log10
  Bactericidal activity log10 No /N, Pseudomonas aeruginosa PAO 579: 3.2 log10
  Bactericidal activity log10 No /N, Pseudomonas aeruginosa PAO 579, "High" ionic strength: 0.1 log10
[8]
  Bactericidal activity log10 No /N, Staphylococcus epidermidis UCLA-622: 1.3 log10
E. coli
  % Killing, E. coli: D (<50% killing)
S. aureus 502A
  % Killing, S. aureus 502A: D (<50% killing)
[9]
  Bactericidal activity log10 No /N, Escherichia coli ATCC 29648: 0.6 log10
[10]
  Bactericidal activity log10 No /N, Hemophilus influenzae Type 3A: > 1.1 log10
[11]
  Bactericidal activity log10 No /N, Staphylococcus aureus 566: 1.3 log10
[12]
  Bactericidal activity log10 No /N, Bordetella bronchiseptica UCLA-342: 0.1 log10
[13]
  Bactericidal activity log10 No /N, Streptococcus agalactiae Type 1A, pH 5.8: 0.0 log10
  Bactericidal activity log10 No /N, Streptococcus agalactiae Type-I-A: 0.6 log10
  Bactericidal activity log10 No /N, Streptococcus agalactiae Type 1A, "High" ionic strength: 0.0 log10

## asp cys tyr cys arg ile pro ala cys ile ala gly glu arg arg tyr gly thr cys ile tyr gln gly arg leu trp ala phe cys cys [HNP-3]
E. coli ML-35
  microbicidal activity compared with the other HNP, E. coli ML-35: less microbicidal than the other oligopeptides
[14]
  microbicidal activity compared with the other HNP, S. aureus 502A: less microbicidal than the other oligopeptides
[15]
  microbicidal activity compared with the other HNP, C. neoformans C-384: less microbicidal than the other oligopeptides

## val val cys ala cys arg arg ala leu cys leu pro leu glu arg arg ala gly phe cys arg ile arg gly arg ile his pro leu cys cys arg arg [NP-2]
[1]
  Bactericidal activity log10 No /N, Streptococcus pneumoniae Type III: > 3.5 log10
[2]
  Bactericidal activity log10 No /N, Staphylococcus aureus 502A: 2.4 log10
[3]
  Bactericidal activity log10 No /N, Klebsiella pneumoniae ATCC 13883, pH 5.8: 0.5 log10
  Bactericidal activity log10 No /N, Klebsiella pneumoniae ATCC 13883: 1.1 log10
  Bactericidal activity log10 No /N, Klebsiella pneumoniae ATCC 13883, "High" ionic strength: 0.0 log10
Streptococcus Group B
  % Killing, Streptococcus Group B: C (50-90% killing)
S. albus
  % Killing, S. albus: B (90-99% killing)
L. monocytogenes
  % Killing, L. monocytogenes: A (>99% killing)
Serratia marcescens
  Bactericidal activity log10 No /N, Serratia marcescens: 1.0 log10
[4]
  Bactericidal activity log10 No /N, Streptococcus agalactiae Type IIIU: 2.9 log10
Ps. aeruginosa
  % Killing, Ps. aeruginosa: A (>99% killing)
[5]
  Bactericidal activity log10 No /N, Staphylococcus aureus J.F.: 2.9 log10
[6]
  Bactericidal activity log10 No /N, Listeria monocytogenes 450, pH 5.8: 0.1 log10
  Bactericidal activity log10 No /N, Listeria monocytogenes 450: 2.1 log10
  Bactericidal activity log10 No /N, Listeria monocytogenes 450, "High" ionic strength: 0.2 log10
[7]
  Bactericidal activity log10 No /N, Pseudomonas aeruginosa PAO 579, pH 5.8: 0.2 log10
  Bactericidal activity log10 No /N, Pseudomonas aeruginosa PAO 579: 3.2 log10
  Bactericidal activity log10 No /N, Pseudomonas aeruginosa PAO 579, "High" ionic strength: 0.0 log10
[8]
  Bactericidal activity log10 No /N, Staphylococcus epidermidis UCLA-622: > 4.1 log10
E. coli
  % Killing, E. coli: B (90-99% killing)
S. aureus 502A
  % Killing, S. aureus 502A: D (<50% killing)
[9]
  Bactericidal activity log10 No /N, Escherichia coli ATCC 29648: 0.8 log10
[10]
  Bactericidal activity log10 No /N, Hemophilus influenzae Type 3A: 2.0 log10
[11]
  Bactericidal activity log10 No /N, Staphylococcus aureus 566: > 4.1 log10
[12]
  Bactericidal activity log10 No /N, Bordetella bronchiseptica UCLA-342: 0.1 log10
[13]
  Bactericidal activity log10 No /N, Streptococcus agalactiae Type 1A, pH 5.8: 0.1 log10
  Bactericidal activity log10 No /N, Streptococcus agalactiae Type-I-A: 2.0 log10
  Bactericidal activity log10 No /N, Streptococcus agalactiae Type 1A, "High" ionic strength: 0.1 log10
